Experimental data: ChEMBL document CHEMBL3885861, “Open TG-GATES”

Species on record: Rattus norvegicus
Assay: Open TG-GATES - Regimen: Single
Format: toxicity, organism-based, Sprague-Dawley
Set-up: regimen Single, gender Male, age 6 weeks
Conditions: in vivo, po, route gavage; for gamma-GTP / ALP / ALT / AST / BUN / CRE / DBIL / GLC / IP / K / LDH / Na / PL / RALB / TBIL / TC / TG / TP: tissue Plasma; for APTT / Bas / Eos / Fbg / Hb / Ht / Lym / MCHC / MCV / Mono / Neu / PT / Plat / RBC / Ret / WBC: tissue Blood; for KIDNEY_L / KIDNEY_R / KIDNEY_TOTAL: tissue Kidney; for LIVER: tissue Liver
[1] = 300 mg/kg, 24 h, dose level Low

## C#C[C@]1(O)CC[C@H]2[C@@H]3CCC4=Cc5oncc5C[C@]4(C)[C@H]3CC[C@@]21C [DANAZOL]
0 mg/kg, 24 h, dose level Control
  gamma-GTP: 2.2 IU/L
300 mg/kg, 3 h, dose level Low
  TERMINAL_BW: 219.6 g
  APTT: 23.3 s
  Bas: 0%
  Eos: 0.6%
  Fbg: 297.4 mg/dL
  Hb: 13.6 g/dL
  Ht: 40.9%
  Lym: 84.4%
  MCHC: 33.3%
  MCV: 62.6 fL
  Mono: 1.6%
  Neu: 12.6%
  PT: 15.8 s
  Plat: 102 x10_4/uL
  RBC: 654 x10_4/ul
  Ret: 7.2%
  WBC: 80 x10_2/uL
  KIDNEY_L: 0.9 g
  KIDNEY_R: 1 g
  KIDNEY_TOTAL: 1.9 g
  LIVER: 9.9 g
  ALP: 1338.8 IU/L
  ALT: 43.4 IU/L
  AST: 77.6 IU/L
  BUN: 15.4 mg/dL
  CRE: 0.2 mg/dL
  DBIL: 0 mg/dL
  GLC: 178.6 mg/dL
  IP: 8.2 mg/dL
  K: 4.3 meq/L
  LDH: 149 IU/L
  Na: 141.6 meq/L
  PL: 131.8 mg/dL
  RALB: 2.9 g/dL
  TBIL: 0.016 mg/dL
  TC: 68.4 mg/dL
  TG: 87 mg/dL
  TP: 5.5 g/dL
  gamma-GTP: 1.8 IU/L
300 mg/kg, 6 h, dose level Low
  APTT: 23.9 s
  Bas: 0%
  Eos: 0.8%
  Fbg: 284.6 mg/dL
  Hb: 13 g/dL
  Ht: 40.1%
  Lym: 76.8%
  MCHC: 32.4%
  MCV: 63.6 fL
  Mono: 2.6%
  Neu: 18.8%
  PT: 16.7 s
  Plat: 120.1 x10_4/uL
  RBC: 631.8 x10_4/ul
  Ret: 7.6%
  WBC: 85.9 x10_2/uL
  KIDNEY_L: 0.9 g
  KIDNEY_R: 0.9 g
  KIDNEY_TOTAL: 1.9 g
  LIVER: 9 g
  ALP: 1332 IU/L
  ALT: 35.4 IU/L
  AST: 70.2 IU/L
  BUN: 10.2 mg/dL
  CRE: 0.2 mg/dL
  DBIL: 0.004 mg/dL
  GLC: 177.8 mg/dL
  IP: 9 mg/dL
  K: 4.3 meq/L
  LDH: 150.6 IU/L
  Na: 142.2 meq/L
  PL: 128.6 mg/dL
  RALB: 3 g/dL
  TBIL: 0.032 mg/dL
  TC: 64.2 mg/dL
  TG: 58 mg/dL
  TP: 5.3 g/dL
  gamma-GTP: 1.6 IU/L
300 mg/kg, 9 h, dose level Low
  TERMINAL_BW: 214.6 g
  APTT: 22.8 s
  Bas: 0%
  Eos: 0.8%
  Fbg: 295.4 mg/dL
  Hb: 13 g/dL
  Ht: 39.6%
  Lym: 78.6%
  MCHC: 32.8%
  MCV: 61.1 fL
  Mono: 2.4%
  Neu: 17.8%
  PT: 16.7 s
  Plat: 117.4 x10_4/uL
  RBC: 650.2 x10_4/ul
  Ret: 7.4%
  WBC: 72.2 x10_2/uL
  KIDNEY_L: 1 g
  KIDNEY_R: 1 g
  KIDNEY_TOTAL: 2 g
  LIVER: 9.5 g
  ALP: 1341.8 IU/L
  ALT: 35.8 IU/L
  AST: 66.2 IU/L
  BUN: 10.8 mg/dL
  CRE: 0.1 mg/dL
  DBIL: 0.002 mg/dL
  GLC: 185.8 mg/dL
  IP: 9.8 mg/dL
  K: 4.3 meq/L
  LDH: 132 IU/L
  Na: 142.4 meq/L
  PL: 109.4 mg/dL
  RALB: 2.9 g/dL
  TBIL: 0.024 mg/dL
  TC: 54.2 mg/dL
  TG: 57.2 mg/dL
  TP: 5.3 g/dL
  gamma-GTP: 1.8 IU/L
[1]
  TERMINAL_BW: 226.8 g
  APTT: 23.3 s
  Bas: 0%
  Eos: 0.6%
  Fbg: 307.6 mg/dL
  Hb: 13.2 g/dL
  Ht: 40.1%
  Lym: 81.8%
  MCHC: 32.9%
  MCV: 62.6 fL
  Mono: 2.2%
  Neu: 14.6%
  PT: 17 s
  Plat: 116.4 x10_4/uL
  RBC: 639.6 x10_4/ul
  Ret: 7.3%
  WBC: 87.1 x10_2/uL
  KIDNEY_L: 1 g
  KIDNEY_R: 1.1 g
  KIDNEY_TOTAL: 2.1 g
  LIVER: 11.5 g
  ALP: 1893.6 IU/L
  ALT: 37.4 IU/L
  AST: 66.4 IU/L
  BUN: 15.8 mg/dL
  CRE: 0.2 mg/dL
  DBIL: 0 mg/dL
  GLC: 187.6 mg/dL
  IP: 7.2 mg/dL
  K: 4.3 meq/L
  LDH: 167 IU/L
  Na: 141.2 meq/L
  PL: 130 mg/dL
  RALB: 3.1 g/dL
  TBIL: 0.002 mg/dL
  TC: 48.2 mg/dL
  TG: 223.8 mg/dL
  TP: 5.6 g/dL
  gamma-GTP: 1.4 IU/L
